Columns and labels:
Assay in all cases: Kinase profiling screen (radioactive filter-binding assay)
Assay type in all cases: biochemical
EPH-B3 = target: T1, EPH-B3 (Homo sapiens, UniProt P54753); settings: 100 μM compound, 20 μM ATP; read-out: Kinase activity, % of activity in the absence of inhibitor
T1 sequence (P54753 34-998): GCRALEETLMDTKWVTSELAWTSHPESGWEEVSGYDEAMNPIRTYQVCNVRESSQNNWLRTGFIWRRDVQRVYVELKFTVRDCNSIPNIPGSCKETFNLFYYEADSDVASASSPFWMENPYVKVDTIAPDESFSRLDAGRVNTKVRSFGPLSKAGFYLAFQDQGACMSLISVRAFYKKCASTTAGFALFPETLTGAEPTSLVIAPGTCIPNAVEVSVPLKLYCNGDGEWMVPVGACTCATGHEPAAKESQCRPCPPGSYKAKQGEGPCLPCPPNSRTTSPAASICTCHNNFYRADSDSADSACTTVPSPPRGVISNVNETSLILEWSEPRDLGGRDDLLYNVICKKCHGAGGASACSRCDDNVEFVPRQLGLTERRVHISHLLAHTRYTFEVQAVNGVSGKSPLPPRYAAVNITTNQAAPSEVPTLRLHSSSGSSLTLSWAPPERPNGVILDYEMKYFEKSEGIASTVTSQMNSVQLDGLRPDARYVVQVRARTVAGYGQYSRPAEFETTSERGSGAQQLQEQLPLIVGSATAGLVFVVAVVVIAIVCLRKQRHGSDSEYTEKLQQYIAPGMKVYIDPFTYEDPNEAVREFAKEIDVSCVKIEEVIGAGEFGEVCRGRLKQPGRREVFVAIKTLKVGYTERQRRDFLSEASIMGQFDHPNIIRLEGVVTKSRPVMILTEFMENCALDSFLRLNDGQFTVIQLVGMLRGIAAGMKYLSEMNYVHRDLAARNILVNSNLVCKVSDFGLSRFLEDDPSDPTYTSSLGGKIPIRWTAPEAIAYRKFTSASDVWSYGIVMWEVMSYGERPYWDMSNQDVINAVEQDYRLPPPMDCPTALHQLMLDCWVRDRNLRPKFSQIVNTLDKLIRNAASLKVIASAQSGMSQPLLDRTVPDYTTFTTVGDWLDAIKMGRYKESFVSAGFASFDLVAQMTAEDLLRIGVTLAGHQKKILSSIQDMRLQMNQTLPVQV
Procedure, shortened: (§1)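 Residual kinase activity is read in duplicate wells containing 100 μM final test compound (CoA, dpCoA or ADP). Recombinant kinases use model substrates at ATP levels optimal for each enzyme, across a 117-kinase screen.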

MINK1 = MINK1 (Homo sapiens, UniProt Q8N4C8); settings: 100 μM compound, 50 μM ATP; read-out: Kinase activity, % of activity in the absence of inhibitor
Procedure, shortened: as §1

p38β MAPK = p38β MAPK (Homo sapiens, UniProt Q15759); settings: 100 μM compound, 20 μM ATP; read-out: Kinase activity, % of activity in the absence of inhibitor
Procedure, shortened: as §1

ZAP70 = target: T2, ZAP70 (Homo sapiens, UniProt P43403); settings: 100 μM compound, 5 μM ATP; read-out: Kinase activity, % of activity in the absence of inhibitor
T2 sequence (P43403 1-619): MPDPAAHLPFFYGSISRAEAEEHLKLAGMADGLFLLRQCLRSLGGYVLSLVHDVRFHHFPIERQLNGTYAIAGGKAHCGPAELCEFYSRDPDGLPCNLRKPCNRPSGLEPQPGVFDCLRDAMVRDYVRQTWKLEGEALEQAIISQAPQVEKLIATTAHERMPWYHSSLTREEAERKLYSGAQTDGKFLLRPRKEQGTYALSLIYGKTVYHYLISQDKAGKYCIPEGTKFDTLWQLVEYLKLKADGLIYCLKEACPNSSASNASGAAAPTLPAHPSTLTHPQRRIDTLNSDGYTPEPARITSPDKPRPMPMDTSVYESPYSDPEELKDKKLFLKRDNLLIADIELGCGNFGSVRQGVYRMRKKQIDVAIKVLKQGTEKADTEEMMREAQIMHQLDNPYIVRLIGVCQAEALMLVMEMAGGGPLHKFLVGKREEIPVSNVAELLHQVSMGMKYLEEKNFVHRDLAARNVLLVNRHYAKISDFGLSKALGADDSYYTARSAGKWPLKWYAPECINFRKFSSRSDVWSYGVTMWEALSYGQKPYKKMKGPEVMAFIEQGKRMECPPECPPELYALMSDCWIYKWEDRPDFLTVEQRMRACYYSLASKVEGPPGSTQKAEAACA
Procedure, shortened: as §1

CHK1 = target: T3, CHK1 (Homo sapiens, UniProt O14757); settings: 100 μM compound, 20 μM ATP; read-out: Kinase activity, % of activity in the absence of inhibitor
T3 sequence (O14757 1-476): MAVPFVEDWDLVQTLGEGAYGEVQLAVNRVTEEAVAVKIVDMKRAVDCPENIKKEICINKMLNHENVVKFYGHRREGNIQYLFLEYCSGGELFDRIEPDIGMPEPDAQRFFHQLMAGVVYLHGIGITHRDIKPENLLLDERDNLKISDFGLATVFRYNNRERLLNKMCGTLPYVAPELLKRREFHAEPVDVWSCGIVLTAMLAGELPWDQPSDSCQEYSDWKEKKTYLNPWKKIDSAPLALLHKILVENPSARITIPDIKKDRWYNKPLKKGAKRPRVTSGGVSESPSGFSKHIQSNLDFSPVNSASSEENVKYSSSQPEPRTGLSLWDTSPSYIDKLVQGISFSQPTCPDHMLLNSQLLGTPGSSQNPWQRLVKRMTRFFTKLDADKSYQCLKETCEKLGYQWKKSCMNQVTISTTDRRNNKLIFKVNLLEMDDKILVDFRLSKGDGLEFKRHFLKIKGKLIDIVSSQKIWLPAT
Procedure, shortened: as §1

MST4 = MST4 (Homo sapiens, UniProt Q9P289); settings: 100 μM compound, 20 μM ATP; read-out: Kinase activity, % of activity in the absence of inhibitor
Procedure, shortened: as §1

CAMK1 = CAMK1 (Homo sapiens, UniProt Q14012); settings: 100 μM compound, 50 μM ATP; read-out: Kinase activity, % of activity in the absence of inhibitor
Procedure, shortened: as §1

p38β MAPK, sequence (Q15759 whole entry): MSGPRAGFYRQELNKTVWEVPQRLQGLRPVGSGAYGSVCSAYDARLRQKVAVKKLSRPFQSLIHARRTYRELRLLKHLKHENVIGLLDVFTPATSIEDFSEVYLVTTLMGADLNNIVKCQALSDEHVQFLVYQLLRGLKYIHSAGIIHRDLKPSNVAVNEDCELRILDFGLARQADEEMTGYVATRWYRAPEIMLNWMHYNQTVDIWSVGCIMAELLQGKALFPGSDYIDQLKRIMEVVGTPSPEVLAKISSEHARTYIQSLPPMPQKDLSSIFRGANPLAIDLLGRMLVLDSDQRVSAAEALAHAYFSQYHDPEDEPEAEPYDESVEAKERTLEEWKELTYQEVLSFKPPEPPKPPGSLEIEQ
MINK1, sequence (Q8N4C8 whole entry): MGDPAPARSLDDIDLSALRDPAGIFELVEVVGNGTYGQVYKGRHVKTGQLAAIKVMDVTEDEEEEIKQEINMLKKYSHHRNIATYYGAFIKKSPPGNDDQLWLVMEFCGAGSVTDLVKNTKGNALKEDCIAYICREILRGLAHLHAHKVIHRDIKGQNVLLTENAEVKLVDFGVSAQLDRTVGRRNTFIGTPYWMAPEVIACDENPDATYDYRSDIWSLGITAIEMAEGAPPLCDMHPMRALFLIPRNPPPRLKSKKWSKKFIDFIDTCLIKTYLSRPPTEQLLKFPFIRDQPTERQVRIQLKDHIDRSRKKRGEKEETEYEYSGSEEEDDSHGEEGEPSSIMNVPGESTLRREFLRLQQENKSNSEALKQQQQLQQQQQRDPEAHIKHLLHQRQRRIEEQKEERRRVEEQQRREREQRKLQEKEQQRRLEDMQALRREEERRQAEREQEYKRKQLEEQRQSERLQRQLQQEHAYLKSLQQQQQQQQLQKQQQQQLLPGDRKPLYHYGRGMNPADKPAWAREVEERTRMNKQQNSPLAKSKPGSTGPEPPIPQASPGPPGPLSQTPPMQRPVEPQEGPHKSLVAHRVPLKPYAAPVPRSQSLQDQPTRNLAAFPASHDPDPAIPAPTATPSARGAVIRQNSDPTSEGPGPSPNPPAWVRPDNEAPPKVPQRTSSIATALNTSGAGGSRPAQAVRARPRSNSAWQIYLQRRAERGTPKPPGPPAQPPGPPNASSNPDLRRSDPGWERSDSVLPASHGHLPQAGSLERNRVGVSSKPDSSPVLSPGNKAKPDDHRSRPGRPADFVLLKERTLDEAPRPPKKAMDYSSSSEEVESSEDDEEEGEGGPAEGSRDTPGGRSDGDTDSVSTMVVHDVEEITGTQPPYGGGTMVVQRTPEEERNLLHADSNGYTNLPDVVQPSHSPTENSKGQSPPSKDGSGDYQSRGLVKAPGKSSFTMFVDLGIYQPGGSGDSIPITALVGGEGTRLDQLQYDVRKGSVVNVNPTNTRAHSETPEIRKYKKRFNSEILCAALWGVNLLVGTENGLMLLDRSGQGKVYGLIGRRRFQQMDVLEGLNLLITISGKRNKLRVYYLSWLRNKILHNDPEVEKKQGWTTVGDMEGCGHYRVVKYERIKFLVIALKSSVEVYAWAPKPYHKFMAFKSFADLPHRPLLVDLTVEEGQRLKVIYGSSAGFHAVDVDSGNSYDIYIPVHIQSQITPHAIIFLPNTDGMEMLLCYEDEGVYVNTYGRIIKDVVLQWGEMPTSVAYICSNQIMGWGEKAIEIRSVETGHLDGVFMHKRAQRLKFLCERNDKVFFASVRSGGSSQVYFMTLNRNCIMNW
MST4, sequence (Q9P289 whole entry): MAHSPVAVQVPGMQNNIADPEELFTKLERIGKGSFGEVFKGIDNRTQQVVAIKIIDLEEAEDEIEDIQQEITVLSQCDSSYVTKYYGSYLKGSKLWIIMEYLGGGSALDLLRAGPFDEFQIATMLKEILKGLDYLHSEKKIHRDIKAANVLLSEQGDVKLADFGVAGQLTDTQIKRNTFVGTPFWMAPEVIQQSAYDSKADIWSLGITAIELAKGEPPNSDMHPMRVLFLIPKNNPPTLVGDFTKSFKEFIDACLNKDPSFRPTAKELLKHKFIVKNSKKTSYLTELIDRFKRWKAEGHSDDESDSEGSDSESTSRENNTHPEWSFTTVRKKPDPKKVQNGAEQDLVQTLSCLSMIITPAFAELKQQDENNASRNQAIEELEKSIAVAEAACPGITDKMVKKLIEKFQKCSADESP

## CC(C)(COP(=O)(O)OP(=O)(O)OC[C@H]1O[C@@H](n2cnc3c(N)ncnc32)[C@H](O)[C@@H]1OP(=O)(O)O)[C@@H](O)C(=O)NCCC(=O)NCCS [CoA, Coenzyme A]
EPH-B3
  activity at 100 µM: 104%
MINK1
  activity at 100 µM: 106%
p38β MAPK
  activity at 100 µM: 160%
ZAP70
  activity at 100 µM: 89.7%
CHK1
  activity at 100 µM: 123%
MST4
  activity at 100 µM: 107%
CAMK1
  activity at 100 µM: 124%

## Nc1ncnc2c1ncn2C1OC(COP(=O)(O)OP(=O)(O)O)C(O)C1O (stereo not drawn) [ADP]
EPH-B3
  activity at 100 µM: 18%
MINK1
  activity at 100 µM: 49.4%
p38β MAPK
  activity at 100 µM: 51.1%
ZAP70
  activity at 100 µM: 13.2%
CHK1
  activity at 100 µM: 47.6%
MST4
  activity at 100 µM: 56.9%
CAMK1
  activity at 100 µM: 80.1%

## CC(C)(COP(=O)(O)OP(=O)(O)OCC1OC(n2cnc3c(N)ncnc32)C(O)C1O)C(O)C(=O)NCCC(=O)NCCS (stereo not drawn) [dpCoA, dephospho-CoA]
EPH-B3
  activity at 100 µM: 94.4%
MINK1
  activity at 100 µM: 104%
p38β MAPK
  activity at 100 µM: 94.5%
ZAP70
  activity at 100 µM: 79.8%
CHK1
  activity at 100 µM: 78.8%
MST4
  activity at 100 µM: 89.7%
CAMK1
  activity at 100 µM: 126%
